These results are taken from patent publication US9779901B2, “High temperature material compositions for high temperature thermal cutoff devices” (Therm-O-Disc, Incorporated, priority 2008, dated 2017).

Structures can show the parent of a compound that is named as a salt. Where two headings read alike, the source gives them in different places.

The conditions of data set [1]: estimated melting point temperature ranges of candidate organic compounds (Table 2); some compounds have several values, partly in parentheses, because analytic techniques differ; cited from earlier work.

Consider `COc1c(O)cc2c(c1OC)-c1ccc(OC)c(=O)cc1C(NC=O)CC2` (centres unmarked) [Example 175], for which the Melting Point lay within 263 to 267 °C. Further, in data set [1], the “Melting Point” value is given as 263-267° ° C.

Consider `Cc1ccc2cc3cc(C)ccc3cc2c1` [Example 80], for which the Melting Point is 250 °C.

`CN(C)c1ccc(C(C)(C)C)cc1` [Example 82] had a Melting Point of 250 to 253 °C. Also, the “Melting Point” value in data set [1] is listed as 250-253° ° C.

The molecule `CC(=O)Nc1cc2ccccc2c2ccc3ccccc3c12` [Example 83] came in with a Melting Point of 250 to 251 °C. Moreover, in data set [1], the “Melting Point” value is on record as 250-251° ° C.

The molecule `CC(C)(C)C1=CC(=C2C=C(C(C)(C)C)C(=O)C(C(C)(C)C)=C2)C=C(C(C)(C)C)C1=O` [Example 22] showed a Melting Point of 243 to 245 °C. Besides, the “Melting Point” value in data set [1] is reported as 243-245° ° C.

`Oc1cc2cc3c(ccc4ccccc43)cc2c2ccccc12` [Example 173] displayed a Melting Point of 263 to 264 °C. In addition, in data set [1], the “Melting Point” value is reported as 263-264° ° C.

In turn, `Cn1cnc2ncn(C)c2c1=O` [Example 41] had a Melting Point of 245 to 246 °C. In data set [1], the “Melting Point” value is listed as 245-246° ° C.

The molecule `COc1cc(CCN(C)C)ccc1O` [Example 129] came in with a Melting Point of 258 to 260 °C. Moreover, in data set [1], the “Melting Point” value was 258-260° ° C.

In turn, `c1ccc(-c2ccnc(-c3cc(-c4ccccc4)cc(-c4cc(-c5ccccc5)ccn4)n3)c2)cc1` [Example 122] returned a Melting Point of 257 to 258 °C. Also, the “Melting Point” value in data set [1] is listed as 257-258° ° C.

For `Oc1ccc2cc3ccccc3cc2c1` [Example 103], the Melting Point turned out to be 254 °C. Moreover, in data set [1], the “Melting Point” value is reported as 254° ° C.

On to `CN[C@H]1CC[C@@H](c2ccccc2)c2ccccc21` (as salt: hydrochloride) [Example 6], for which the Melting Point lay within 241 to 242 °C.

In turn, `Nc1nnc2ccccn12` [Example 48] had a Melting Point of 245 to 247 °C. Besides, in data set [1], the “Melting Point” value is recorded as 245-247° ° C.

`c1ccc2c(c1)[nH]c1ccc3ccncc3c12` [Example 132] yielded a Melting Point of 259 to 260 °C. Besides, the “Melting Point” value in data set [1] is 259-260° ° C.

Take `O=c1cc2oc3ccccc3oc-2cc1=O` [Example 138]: the Melting Point was in the range of 260 to 261 °C. Also, the “Melting Point” value in data set [1] is given as 260-261° ° C.

With `CC1=C(/C=C/C(C)=C/C=C/C(C)=C/C=C/C=C(C)/C=C/C=C(C)/C=C/C2=C(C)C(=O)C(=O)C2(C)C)C(C)(C)C(=O)C1=O` [Example 26], the Melting Point came to 243 °C. Moreover, the “Melting Point” value in data set [1] was 243° ° C.

In turn, `NC(=O)C(CC(C(N)=O)C(N)=O)C(N)=O` [Example 168] yielded a Melting Point of 263 to 265 °C. Further, the “Melting Point” value in data set [1] is recorded as 263-265° ° C.

The molecule `Cn1c(=O)c2ccn(C)c2n(C)c1=O` [Example 192] returned a Melting Point of 265 to 266 °C. Further, the “Melting Point” value in data set [1] is 265-266° ° C.

Molecule `CCN(CCCCN)c1ccc2c(=O)[nH][nH]c(=O)c2c1` [Example 136] came in with a Melting Point of 259 to 260 °C. Also, the “Melting Point” value in data set [1] is listed as 259-260° ° C.

Regarding `c1nc2nc3nc[nH]cc3n2n1` [Example 77], the Melting Point came out at 250 °C. For the same molecule, the “Melting Point” value in data set [1] is recorded as 250° ° C.

For the molecule `c1ccc2c(c1)-c1ccccc1C2C1c2ccccc2-c2ccccc21` [Example 56], the Melting Point came to 246 °C. Also, the “Melting Point” value in data set [1] is 246° ° C.

Turning to `CC(=O)N[C@H]1[C@@H](OCc2ccccc2)O[C@@H]2CO[C@H](c3ccccc3)O[C@H]2[C@@H]1O` [Example 176], the Melting Point was in the range of 263 to 264 °C. Moreover, in data set [1], the “Melting Point” value is 263-264° ° C.

Molecule `O=c1cc2[nH]c3ccccc3oc-2cc1=O` [Example 185] had a Melting Point of 264 to 265 °C. In data set [1], the “Melting Point” value is given as 264-265° ° C.

Regarding `Nc1ccc2c(c1)[nH]c1ccccc12` [Example 47], the Melting Point was in the range of 245 to 247 °C. For the same molecule, the “Melting Point” value in data set [1] was 245-247° ° C.

Turning to `CC(=O)N[C@@H]1CCC[C@H](NC(C)=O)C1` [Example 166], the Melting Point lay within 262 to 264 °C. In addition, the “Melting Point” value in data set [1] is listed as 262-264° ° C.

`Oc1cc2ccccc2c2cc3ccc4ccccc4c3cc12` [Example 130] yielded a Melting Point of 258 to 259 °C. Also, the “Melting Point” value in data set [1] is reported as 258-259° ° C.

Consider `O=C1CCc2c1[nH]c1ccccc21` [Example 95], for which the Melting Point fell in the range of 252 to 252.5 °C. Besides, the “Melting Point” value in data set [1] is 252-252.5° ° C.

Consider `c1cc2n[nH]nc2cn1` [Example 50], for which the Melting Point lay in the range of 246 to 247 °C. In data set [1], the “Melting Point” value was 246-247° ° C.

`Oc1cccc2nc3ccccc3cc12` [Example 84] yielded a Melting Point of 230 °C.

With `c1ccc(-c2nc(-c3ccccc3)c(-c3ccccc3)nc2-c2ccccc2)cc1` [Example 69], the Melting Point came out at 248 °C. For the same molecule, the “Melting Point” value in data set [1] is given as 248° ° C.

In the case of `O=C(O)c1cccc2c1-c1ccc([N+](=O)[O-])cc1C2=O` [Example 163], the Melting Point lay in the range of 262 to 262.5 °C. In addition, the “Melting Point” value in data set [1] is reported as 262-262.5° ° C.

In the case of `NC(=O)c1c2ccccc2nc2ccccc12` [Example 178], the Melting Point fell in the range of 263 to 264 °C. In addition, in data set [1], the “Melting Point” value is recorded as 263-264° ° C.

In turn, `Nc1nc2c([N+](=O)[O-])cccc2s1` [Example 105] had a Melting Point of 254 °C. Besides, in data set [1], the “Melting Point” value is recorded as 254° ° C.

`Nc1nc(N)nc(Cc2ccccc2)n1` [Example 67] returned a Melting Point of 248 °C.

For the molecule `O=c1c2ccccc2[nH]c2c([N+](=O)[O-])cccc12` [Example 164], the Melting Point is 262 °C. Also, the “Melting Point” value in data set [1] was 262° ° C.

In turn, `NNc1ccc(C(N)=O)nn1` [Example 72] yielded a Melting Point of 249 to 250 °C. For the same molecule, in data set [1], the “Melting Point” value is reported as 249-250° ° C.

`CN1Cc2cc(C3=NNC(=O)CC3)ccc2NC1=O` [Example 79] returned a Melting Point of 250 °C. Further, the “Melting Point” value in data set [1] was 250° ° C.

`O=c1nc(Cc2ccccc2)[nH]c2ccccc12` [Example 102] showed a Melting Point of 254 to 256 °C.

Molecule `NC(=O)c1c2c(nc3ccccc13)CCCC2` [Example 191] returned a Melting Point of 265 to 267 °C. In data set [1], the “Melting Point” value is 265-267° ° C.

With `Cc1c(C)c(CO)c(C)c(C)c1CO` [Example 51], the Melting Point was 246 to 248 °C. Besides, in data set [1], the “Melting Point” value was 246-248° ° C.

In turn, `Cc1ccc2cnc(O)cc2c1` [Example 204] registered a Melting Point of 265 °C. The “Melting Point” value in data set [1] is 265° ° C.

`Cc1cc2[nH]c3ccccc3c2cc1C` [Example 87] displayed a Melting Point of 251 to 253 °C. The “Melting Point” value in data set [1] was 251-253° ° C.

The molecule `Nc1ccc2ccccc2c1-c1c(N)ccc2ccccc12` [Example 25] showed a Melting Point of 242.5 to 243 °C. Besides, the “Melting Point” value in data set [1] was 242.5-243° ° C.

The molecule `O=Cc1c2ccccc2c(C=O)c2ccccc12` [Example 37] showed a Melting Point of 244 to 245 °C. In addition, the “Melting Point” value in data set [1] was 244-245° ° C.

For the molecule `Cc1cc(C)c(C=O)cc1C` [Example 28], the Melting Point stood at 243 °C. Further, the “Melting Point” value in data set [1] is 243° ° C.

`c1ccc2nc3nccnc3nc2c1` [Example 71] registered a Melting Point of 249 °C. Further, in data set [1], the “Melting Point” value was 249° ° C.

The molecule `CCOc1cccc(C#N)c1` [Example 5] came in with a Melting Point of 241 to 244 °C. Besides, the “Melting Point” value in data set [1] is 241-244° ° C.

Consider `Nc1cccc2sc3ccccc3c(=O)c12` [Example 75], for which the Melting Point fell in the range of 249 to 250 °C. Further, in data set [1], the “Melting Point” value is reported as 249-250° ° C.

On to `N#CC(CCN1CCC(C(=O)ON2C(=O)CCC2=O)(c2ccccc2)CC1)(c1ccccc1)c1ccccc1` (as salt: hydrochloride) [Example 17], for which the Melting Point was 242 to 244 °C.

As for `N#Cc1ccc2c(=O)c3ccccc3sc2c1` [Example 110], the Melting Point lay in the range of 255 to 256 °C. Also, the “Melting Point” value in data set [1] is 255-256° ° C.

`O=c1c2ccccc2oc2nc3ccccc3nc12` [Example 155]: the Melting Point was 261 °C. Also, in data set [1], the “Melting Point” value is 261° ° C.

On to `Oc1c2ccc3ccccc3c2cc2ccc3ccccc3c12` [Example 101], for which the Melting Point was 254 to 256 °C. In addition, the “Melting Point” value in data set [1] is listed as 254-256° ° C.

On to `c1ccc(-c2nc3ncncc3[nH]2)cc1` [Example 150], for which the Melting Point was in the range of 261 to 262 °C. In addition, the “Melting Point” value in data set [1] is 261-262° ° C.

As to `C#C/C=C/C1C(O)CCCC12CCCC(CCCC#C)N2` (centres unmarked) [Example 60], the Melting Point fell in the range of 247 to 250 °C. The “Melting Point” value in data set [1] is given as 247-250° ° C.

The molecule `N#Cc1ccc(Nc2ccc(C#N)cc2)cc1` [Example 194] gave a Melting Point of 265 to 266 °C. The “Melting Point” value in data set [1] is 265-266° ° C.

`NC(=O)CCCC[C@@H]1SC[C@@H]2NC(=O)N[C@@H]21` [Example 13] returned a Melting Point of 242 to 244 °C. In addition, in data set [1], the “Melting Point” value is 242-244° ° C.

On to `Nc1cccc2c1C(=O)c1c(N)cccc1C2=O` [Example 198], for which the Melting Point worked out at 265 °C. The “Melting Point” value in data set [1] is reported as 265° ° C.

`Nc1ccc2cc([N+](=O)[O-])ccc2n1` [Example 201]: the Melting Point was found to be 265 °C. For the same molecule, in data set [1], the “Melting Point” value was 265° ° C.

The molecule `CC(=O)Oc1c(C)c(C)c2c(c1C)CCC(C)(CCN(C)C)O2` (centres unmarked) (as salt: hydrochloride) [Example 172] registered a Melting Point of 263 to 270 °C.

Regarding `CC1NCCc2c1[nH]c1cc(O)ccc21` (centres unmarked) (as salt: hydrochloride) [Example 100], the Melting Point was in the range of 254 to 255 °C.

`CC(C)C(=O)OC1C[C@H]2CC[C@@H](C1)N2C` (some centres unmarked) [Example 14]: the Melting Point turned out to be 242 °C.

`c1ccc2cc3c(ccc4cc5ccccc5cc43)cc2c1` [Example 123] gave a Melting Point of 257 °C.

In the case of `NC(=O)c1ccc(Oc2ccc(C(N)=O)cc2)cc1` [Example 193], the “Melting Point” value in data set [1] was 265° ° C.
